According to patent US20130196977A1, “USE OF ORGANIC COMPOUNDS” (priority 2004, published 2013):
Entries after “also recorded” stand apart in the source; their conditions may differ.

Legend:
Type in all cases: in vivo, rat
[1] = tested on: double transgenic rats expressing human renin and human angiotensinogen (dTGR); test: Cardiac hypertrophy index at sacrifice in dTGR; conditions: for cardiac hypertrophy index score: p<0.05
Description: To circumvent this problem, transgenic rats have been developed harboring either the human renin or the human angiotensinogen genes. […] Consequently, the single transgenic rats (i.e., transgenic for either human angiotensinogen or renin) are normotensive. […] As an example, four-week-old, male dTGR are allowed to develop hypertension and are placed in metabolic cages at 5.5 weeks of age. Systolic blood pressure (tail-cuff) and 24 h albumin excretion (ELISA, CellTrend, Germany) are measured as described earlier by Muller et al. Am J Pathol. 2002, 161:1679-93 and Muller et al. Am J Pathol. 2004, 164:521-32. The dTGR are matched at week 6 in terms of 24 h albumin excretion and distributed in five groups of 19 rats each. Treatments begin when the rats are aged 6 weeks. The rats receive vehicle treatment, aliskiren at 0.3 mg/kg/day and 3 mg/kg/day (by subcutaneous minipump), valsartan 1 mg/kg/day, and valsartan 10 mg/kg/day (given in the food). The low dose of valsartan is selected as a threshold treatment to reduce mortality yet only minimally effect blood pressure and organ damage. We know from earlier studies that vehicle-treated animals would not survive beyond 8 weeks of age and thus this low dose valsartan group will serve as a control group at 9 weeks. Echocardiography (M-mode tracings in the short axis and Tissue-Doppler-imaging;, n=5-6 per group at weeks 7 and 9) is performed with a 15 MHz phased-array transducer under isoflurane anesthesia (Mazak et al. Circulation. 2004; 109:2792-800). Three measurements per heart are determined, averaged, and statistically analyzed. M-mode is performed in a LV short axis and measured according to the leading edge-method. Total wall thickness is calculated as sum of septum+left ventricular posterior wall. Rats are sacrificed at age 9 weeks. The kidneys and hearts are removed and washed with ice-cold saline, blotted dry, and weighed. Tissue preparation and immunohistological techniques are performed as previously described Muller et al. Am J Pathol. 2002, 161:1679-93. Sections are incubated with primary antibodies against rat monocytes/macrophages (ED-1, Serotec, Germany), MHC II+, CD4+, and CD86+ cells (all BD Pharmingen, Germany). Scoring of infiltrated cells is performed using the program KS 300 3.0 (Zeiss, Germany). Fifteen different areas of each kidney (n=5 in all groups) are analyzed. A mean score for each animal is computed and used to derive a group mean score. Analyses are conducted without knowledge of the specific treatment.

[2] = tested on: double transgenic rats expressing human renin and human angiotensinogen (dTGR); test: M-mode echocardiography of LV wall thickness / hypertrophy in dTGR; conditions: dTGR at 9 weeks
Description: (§1) As an example, four-week-old, male dTGR are allowed to develop hypertension and are placed in metabolic cages at 5.5 weeks of age. Systolic blood pressure (tail-cuff) and 24 h albumin excretion (ELISA, CellTrend, Germany) are measured as described earlier by Muller et al. Am J Pathol. 2002, 161:1679-93 and Muller et al. Am J Pathol. 2004, 164:521-32. The dTGR are matched at week 6 in terms of 24 h albumin excretion and distributed in five groups of 19 rats each. Treatments begin when the rats are aged 6 weeks. The rats receive vehicle treatment, aliskiren at 0.3 mg/kg/day and 3 mg/kg/day (by subcutaneous minipump), valsartan 1 mg/kg/day, and valsartan 10 mg/kg/day (given in the food). The low dose of valsartan is selected as a threshold treatment to reduce mortality yet only minimally effect blood pressure and organ damage. We know from earlier studies that vehicle-treated animals would not survive beyond 8 weeks of age and thus this low dose valsartan group will serve as a control group at 9 weeks. Echocardiography (M-mode tracings in the short axis and Tissue-Doppler-imaging;, n=5-6 per group at weeks 7 and 9) is performed with a 15 MHz phased-array transducer under isoflurane anesthesia (Mazak et al. Circulation. 2004; 109:2792-800). Three measurements per heart are determined, averaged, and statistically analyzed. M-mode is performed in a LV short axis and measured according to the leading edge-method. Total wall thickness is calculated as sum of septum+left ventricular posterior wall.

[3] = tested on: double transgenic rats expressing human renin and human angiotensinogen (dTGR); test: Tissue Doppler assessment of diastolic filling (Ea/Aa) in dTGR; conditions: dTGR at 9 weeks
Description: as §1
Tissue Doppler measures the velocity of the longitudinal cardiac movement at the basal septum, allowing assessment of diastolic filling Tissue Doppler measurements are performed with the sample volume in the basal septum in a four-chamber view. […] The measurements represent velocities of peak early (Ea) and late (Aa) diastolic expansion velocities. The Ea/Aa ratio is reported as an index of diastolic function.

[4] = tested on: α-myosin heavy chain (α-MHC) and β-MHC mRNA; test: RT-PCR of left ventricular α-MHC and β-MHC mRNA in dTGR; conditions: left ventricle, 9 weeks
Description: as §1, with “wall. For RT-PCR, LV mRNA is isolated with TRIZOL (Gibco Life Technology). RT-PCR for α-myosin heavy chain (α-MHC) and β-MHC, as well as for atrial natriuretic peptide (ANP) is carried out in 25 μL SybrGreen PCR Master Mix (Applied Biosystems, Germany) containing […] primer and 1 μL of the reverse transcription reaction in a 5700 Sequence Detection System (Applied Biosystems). Thermal cycling conditions comprise an initial denaturation step at 95° C. for 10 min, followed by 95° C. for 15 s and 65° C. for 1 min for 40 cycles. mRNA expression is standardized to the hypoxanthine phosphoribosyl transferase gene as a housekeeping gene (primer sequences available on request).” for “wall.”

[5] = tested on: atrial natriuretic peptide (ANP) mRNA; test: RT-PCR of left ventricular ANP mRNA in dTGR; conditions: 9 weeks
Description: as §1, with “wall. For RT-PCR, LV mRNA is isolated with TRIZOL (Gibco Life Technology). RT-PCR for α-myosin heavy chain (α-MHC) and β-MHC, as well as for atrial natriuretic peptide (ANP) is carried out in 25 μL SybrGreen PCR Master Mix (Applied Biosystems, Germany) containing […] primer and 1 μL of the reverse transcription reaction in a 5700 Sequence Detection System (Applied Biosystems). […]” for “wall.”

[6] = valsartan 1 mg/kg/d in the food
[7] = valsartan 10 mg/kg/d in the food
[8] = aliskiren 3 mg/kg/d, listed as Alisk

SMILES: CCCCC(=O)N(Cc1ccc(-c2ccccc2-c2nnn[nH]2)cc1)[C@H](C(=O)O)C(C)C [valsartan]
- cardiac hypertrophy index score ([1]; valsartan 10 mg/kg/d in the food from week 6, age 9 weeks): decreases
- wall thickness (septum + LV posterior wall) [2, 6]: about 3.4 mm
- left ventricular hypertrophy (in words) ([2]; valsartan 1 mg/kg/d): concentric hypertrophy; also recorded: severe left ventricular hypertrophy; also recorded: severe septal and posterior wall hypertrophy
- wall thickness (septum + LV posterior wall) [2, 7]: about 2.7 mm
- left ventricular hypertrophy (in words) ([2]; valsartan 10 mg/kg/d): markedly ameliorated
- left ventricular hypertrophy (in words) ([2]; valsartan 10 mg/kg/d, listed as Val): reduces septal and posterior wall hypertrophy substantially
- Ea/Aa ratio [3, 6]: about 0.68
- Ea/Aa ratio ([3]; valsartan 1 mg/kg/d in the food, listed as Val): 0.66
- diastolic dysfunction / diastolic filling (in words) ([3]; valsartan 1 mg/kg/d): marked diastolic dysfunction
- diastolic dysfunction / diastolic filling (in words) ([3]; valsartan 1 mg/kg/d, listed as Val): severe diastolic dysfunction
- diastolic dysfunction / diastolic filling (in words) ([3]; valsartan 10 mg/kg/d (high dose)): still present
- diastolic dysfunction / diastolic filling (in words) ([3]; valsartan 10 mg/kg/d (high dose), listed as Val): indicating diastolic dysfunction
- Ea/Aa ratio [3, 7]: about 1.0
- Ea/Aa ratio ([3]; valsartan 10 mg/kg/d in the food, listed as Val): 1.0
- shift from α-MHC expression to the fetal β-MHC isoform (LV mRNA) ([4]; valsartan 10 mg/kg/d): prevent the shift
- LV ANP mRNA expression compared to valsartan 1 mg/kg/d treated dTGR ([5]; valsartan 10 mg/kg/d): reduces the expression of this gene, but not to a significant degree

SMILES: COCCCOc1cc(C[C@@H](C[C@H](N)[C@@H](O)C[C@H](C(=O)NCC(C)(C)C(N)=O)C(C)C)C(C)C)ccc1OC [aliskiren, 2(S),4(S),5(S),7(S)—N-(3-amino-2,2-dimethyl-3-oxopropyl)-2,7-di(1-methylethyl)-4-hydroxy-5-amino-8-[4-methoxy-3-(3-methoxy-propoxy)phenyl]-octanamide]
- cardiac hypertrophy index score ([1]; aliskiren 0.3 mg/kg/d subcutaneous minipump from week 6, age 9 weeks): decreases
- cardiac hypertrophy index score ([1]; aliskiren 3 mg/kg/d subcutaneous minipump from week 6, age 9 weeks): decreases
- cardiac hypertrophy index compared to valsartan 10 mg/kg/d treated dTGR ([1]; aliskiren 3 mg/kg/d, age 9 weeks): significantly lower
- left ventricular hypertrophy (in words) ([2]; aliskiren 0.3 mg/kg/d): markedly ameliorated
- left ventricular hypertrophy (in words) ([2]; aliskiren 0.3 mg/kg/d, listed as Aliskiren): reduce left ventricular hypertrophy
- wall thickness (septum + LV posterior wall) ([2]; aliskiren 3 mg/kg/d subcutaneous minipump): about 2.2 mm
- left ventricular hypertrophy (in words) ([2]; aliskiren 3 mg/kg/d): markedly ameliorated; also recorded: lowest wall thickness values
- left ventricular hypertrophy (in words) [2, 8]: reduce left ventricular hypertrophy; also recorded: normalized LV dimensions
- Ea/Aa ratio ([3]; aliskiren 0.3 mg/kg/d (low dose) subcutaneous minipump): about 1.5
- Ea/Aa ratio ([3]; aliskiren 0.3 mg/kg/d (low dose) subcutaneous minipump, listed as Alisk): 1.5
- diastolic dysfunction / diastolic filling (in words) ([3]; aliskiren 0.3 mg/kg/d): markedly improve
- diastolic dysfunction / diastolic filling (in words) ([3]; aliskiren 0.3 mg/kg/d, listed as Alisk): appropriate diastolic filling
- Ea/Aa ratio ([3]; aliskiren 3 mg/kg/d (high dose) subcutaneous minipump): about 1.4
- Ea/Aa ratio ([3]; aliskiren 3 mg/kg/d (high dose) subcutaneous minipump, listed as Alisk): 1.5
- diastolic dysfunction / diastolic filling (in words) ([3]; aliskiren 3 mg/kg/d): markedly improve; also recorded: best diastolic filling
- diastolic dysfunction / diastolic filling (in words) [3, 8]: appropriate diastolic filling
- shift from α-MHC expression to the fetal β-MHC isoform (LV mRNA) ([4]; aliskiren 0.3 mg/kg/d): prevent the shift
- shift from α-MHC expression to the fetal β-MHC isoform (LV mRNA) ([4]; aliskiren 3 mg/kg/d): prevent the shift
- shift from α-MHC expression to the fetal β-MHC isoform (LV mRNA) ([4]; aliskiren 3 mg/kg/d, listed as Aliskiren): most effective
- LV ANP mRNA expression compared to valsartan 1 mg/kg/d treated dTGR ([5]; aliskiren 0.3 mg/kg/d): reduced
- LV ANP mRNA expression compared to valsartan 1 mg/kg/d treated dTGR ([5]; aliskiren 3 mg/kg/d): reduced
